From patent US20220289766A1 (INFLAZOME LIMITED, priority 2019, published 2022)

Key:
NLRP3 [1] = target: T1, NLRP3 (Homo sapiens, UniProt Q96P20); assay: Human whole blood IL-1β release assay; format: cell-based; design: Plate out 80 μl of whole blood containing 1 μg/ml of LPS in 96-well, clear bottom cell culture plate; from tissue; host or cells: human whole blood from healthy donors; conditions: LPS 1 μg/ml, compound 3 hrs, nigericin 10 μM 1 hr, IL-1β by AlphaLisa, read-out: HWB IC50
Protocol: For systemic delivery, the ability to inhibit NLRP3 when the compounds are present within the bloodstream is of great importance. For this reason, the NLRP3 inhibitory activity of a number of compounds in human whole blood was investigated in accordance with the following protocol.
Human whole blood in Li-heparin tubes was obtained from healthy donors from a volunteer donor panel. • 1. Plate out 80 μl of whole blood containing 1 μg/ml of LPS in 96-well, clear bottom cell culture plate (Corning #3585) • 2. Add 10 μl compound (8 points half-log dilution with 10 μM top dose) or vehicle (DMSO 0.1% FAC) to the appropriate wells • 3. Incubate for 3 hrs at 37° C., 5% CO2 • 4. Add 10 μl nigericin (Sigma #N7143) (10 μM FAC) to all wells • 5. Incubate for 1 hr at 37° C., 5% CO2 • 6. At the end of the incubation period, spin plates at 300×g for 5 mins to pellet cells and remove […] of supernatant and add to 96-well v-bottom plates for IL-1β analysis (note: these plates containing the supernatants can be stored at −80° C. to be analysed at a later date) • 7. IL-1β was measured according to the manufacturer protocol (Perkin Elmer-AlphaLisa IL-1 Kit AL220F-5000) • 8. IC50 data is fitted to a non-linear regression equation (log inhibitor vs response-variable slope 4-parameters)

NLRP3 [2] = target: T1, NLRP3; assay: THP-1 cells pyroptosis assay; format: cell-based; design: Seed THP-1 cells (25,000 cells/well) containing 1.0 μg/ml LPS in 40 μl of RPMI medium; host or cells: THP-1 cells; conditions: LPS 1 μg/ml, compound 3 hrs, nigericin 5 μM 1 hr, resazurin readout
Protocol: THP-1 cells (ATCC #TIB-202) were grown in RPMI containing L-glutamine (Gibco #11835) supplemented with 1 mM sodium pyruvate (Sigma #S8636) and penicillin (100 units/ml)/streptomycin (0.1 mg/ml) (Sigma #P4333) in 10% Fetal Bovine Serum (FBS) (Sigma #F0804). The cells were routinely passaged and grown to confluency (˜10^6 cells/ml). On the day of the experiment, THP-1 cells were harvested and resuspended into RPMI medium (without FBS). The cells were then counted and viability ([…]) checked by Trypan blue (Sigma #T8154). Appropriate dilutions were made to give a concentration of 625,000 cells/ml. To this diluted cell solution was added LPS (Sigma #L4524) to give a 1 μg/ml Final Assay Concentration (FAC). 40 μl of the final preparation was aliquoted into each well of a 96-well plate. The plate thus prepared was used for compound screening.
The following method step-by-step assay was followed for compound screening. • 1. Seed THP-1 cells (25,000 cells/well) containing 1.0 μg/ml LPS in 40 μl of RPMI medium (without FBS) in 96-well, black walled, clear bottom cell culture plates coated with poly-D-lysine (VWR #734-0317) • 2. Add 5 μl compound (8 points half-log dilution, with 10 μM top dose) or vehicle (DMSO 0.1% FAC) to the appropriate wells • 3. Incubate for 3 hrs at 37° C., 5% CO2 • 4. Add 5 μl nigericin (Sigma #N7143) (FAC 5 μM) to all wells • 5. Incubate for 1 hr at 37° C., 5% CO2 • 6. At the end of the incubation period, spin plates at 300×g for 3 mins and remove supernatant • 7. Then add 50 μl of resazurin (Sigma #R7017) (FAC 100 μM resazurin in RPMI medium without FBS) and incubate plates for a further 1-2 hrs at 37° C. and 5% CO2 • 8. Plates were read in an Envision reader at Ex 560 nm and Em 590 nm • 9. IC50 data is fitted to a non-linear regression equation (log inhibitor vs response-variable slope 4-parameters)

T1 sequence (Q96P20 whole entry): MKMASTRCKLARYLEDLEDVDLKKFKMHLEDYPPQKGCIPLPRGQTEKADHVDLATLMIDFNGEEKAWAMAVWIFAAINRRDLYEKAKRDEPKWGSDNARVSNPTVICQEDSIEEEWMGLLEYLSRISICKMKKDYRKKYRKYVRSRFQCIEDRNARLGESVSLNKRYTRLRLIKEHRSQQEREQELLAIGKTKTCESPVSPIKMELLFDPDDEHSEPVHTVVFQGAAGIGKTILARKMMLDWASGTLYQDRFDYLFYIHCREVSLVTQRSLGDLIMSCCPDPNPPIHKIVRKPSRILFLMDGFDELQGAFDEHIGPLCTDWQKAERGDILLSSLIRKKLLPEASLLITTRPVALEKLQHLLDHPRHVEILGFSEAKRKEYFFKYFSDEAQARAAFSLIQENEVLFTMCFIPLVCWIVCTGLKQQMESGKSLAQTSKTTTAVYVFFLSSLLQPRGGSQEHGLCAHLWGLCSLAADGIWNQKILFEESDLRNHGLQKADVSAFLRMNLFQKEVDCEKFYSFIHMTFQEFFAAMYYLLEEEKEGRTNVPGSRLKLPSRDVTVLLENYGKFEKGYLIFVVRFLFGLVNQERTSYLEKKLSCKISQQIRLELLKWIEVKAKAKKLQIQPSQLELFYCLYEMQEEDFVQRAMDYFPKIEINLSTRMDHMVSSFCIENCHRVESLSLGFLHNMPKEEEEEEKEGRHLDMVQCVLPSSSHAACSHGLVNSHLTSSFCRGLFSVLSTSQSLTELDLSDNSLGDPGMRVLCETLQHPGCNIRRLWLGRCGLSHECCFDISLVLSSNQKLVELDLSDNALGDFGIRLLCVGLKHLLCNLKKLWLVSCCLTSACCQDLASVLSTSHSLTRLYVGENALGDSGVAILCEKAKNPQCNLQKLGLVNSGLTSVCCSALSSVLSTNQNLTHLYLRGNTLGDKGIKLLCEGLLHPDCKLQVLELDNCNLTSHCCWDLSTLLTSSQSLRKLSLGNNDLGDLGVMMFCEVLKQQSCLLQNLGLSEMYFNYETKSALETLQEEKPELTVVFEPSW

Row | IC50 (NLRP3 [1]) [nM] | IC50 (NLRP3 [2]) [nM] | Compound
1 | 100 to 500 | ≤ 100 | O=C1Nc2c(ccc3c2CCC3)-c2ccnc(c2)O[C@H]2COC[C@@H]2n2ccc(n2)S(=O)(=O)N1 (racemic) [Example 35, (anti)-21,24-dioxa-14λ^6-thia-11,13,18,26,30-pentaazahexacyclo-[23.3.1.1^15,18.0^2,10.0^5,9.0^19,23]-triaconta-1(28),2,4,9,15(30),16,25(29),26-octaene-12,14,14-trione]
2 | 5000 to 10000 | 1000 to 5000 | O=C1Nc2c3c(cc4c2C(CCCCCCn2ccc(n2)S(=O)(=O)N1)CC4)CCC3 (racemic) [Example 48, 5λ^6-thia-2,4,9,27-tetraazapentacyclo[14.9.1.1^6,9.0^19,26.0^21,25]heptacosa-1(25),6(27),7,19(26),20-pentaene-3,5,5-trione]
3 |  | 1000 to 5000 | O=C1Nc2c3c(cc4c2C(CCCCn2ccc(n2)S(=O)(=O)N1)CC4)CCC3 (racemic) [Example 49, 10λ^6-thia-6,11,13,25-tetraazapentacyclo[12.9.1.1^6,9.0^15,19.0^21,24]pentacosa-7,9(25),14,19,21(24)-pentaene-10,10,12-trione]
4 | 1000 to 5000 | 100 to 500 | O=C1Nc2c3c(cc4c2C(CCCCCn2ccc(n2)S(=O)(=O)N1)CC4)CCC3 (racemic) [Example 50, 5λ^6-thia-2,4,9,26-tetraazapentacyclo[13.9.1.1^6,9.0^18,25.0^20,24]hexacosa-1(24),6(26),7,18(25),19-pentaene-3,5,5-trione]
5 |  | 1000 to 5000 | O=C1Nc2c(ccc3c2CCC3)-c2ccnc(c2)OCc2cc(nn2C2CC2)S(=O)(=O)N1 [Example 16, 17-cyclopropyl-20-oxa-14λ^6-thia-11,13,16,17,22-pentaazapentacyclo-[19.3.1.1^15,18.0^2,10.0^5,9]hexacosa-1(24),2,4,9,15,18(26),21(25),22-octaene-12,14,14-trione]
6 |  | 1000 to 5000 | O=C1Nc2c(ccc3c2CCC3)-c2cccc(c2)OCCCn2ccc(n2)S(=O)(=O)N1 [Example 21, 22-oxa-14λ^6-thia-11,13,18,28-tetraazapentacyclo-[21.3.1.1^15,18.0^2,10.0^5,9]-octacosa-1(26),2,4,9,15(28),16,23(27),24-octaene-12,14,14-trione]

Further lines, the compound ahead of its results:

Row | Compound | IC50 (NLRP3 [1]) [nM] | IC50 (NLRP3 [2]) [nM]
7 | O=C1Nc2c(ccc3c2CCC3)-c2ccnc(c2)OCCCCCn2ccc(n2)S(=O)(=O)N1 [Example 1, 24-Oxa-14λ^6-thia-11,13,18,26,30-pentaazapentacyclo-[23.3.1.1^15,18.0^2,10.0^5,9]-triaconta-1(29),2(10),3,5(9),15(30),16,25,27-octaene-12,14,14-trione] | 1000 to 5000 | 100 to 500
8 | Cc1cc2c(c3c1-c1ccnc(c1)OCCCCCn1ccc(n1)S(=O)(=O)NC(=O)N3)CCC2 [Example 2, 3-methyl-24-oxa-14λ^6-thia-11,13,18,26,30-pentaaza-pentacyclo[23.3.1.1^15,18.0^2,10.0^5,9]-triaconta-1(29),2(10),3,5(9),15(30), 16,25,27-octaene-12,14,14-trione] | 500 to 1000 | ≤ 100
9 | O=C1Nc2c(ccc3c2CCC3)-c2ccnc(c2)OCCOCCn2ccc(n2)S(=O)(=O)N1 [Example 3, 21,24-dioxa-14λ^6-thia-11,13,18,26,30-pentaazapentacyclo-[23.3.1.1^15,18.0^2,10.0^5,9]triaconta-1(29),2(10),3,5(9),15(30),16,25,27-octaene-12,14,14-trione] | 100 to 500 | 100 to 500
10 | O=C1Nc2c(ccc3c2CCC3)-c2ccnc(c2)OCCCCn2ccc(n2)S(=O)(=O)N1 [Example 4, 23-oxa-14λ^6-thia-11,13,18,25,29-pentaazapentacyclo-[22.3.1.1^15,18.0^2,10.0^5,9]nonacosa-1(28),2(10),3,5(9),15(29),16,24,26-octaene-12,14,14-trione] | 500 to 1000 | 100 to 500
11 | O=C1Nc2c(ccc3c2CCC3)-c2ccnc(c2)OCCCCCCn2ccc(n2)S(=O)(=O)N1 [Example 5, 25-oxa-14λ^6-thia-11,13,18,27,31-pentaazapentacyclo-[24.3.1.1^15,18.0^2,10.0^5,9]hentriaconta-1(30),2(10),3,5(9),15(31),16,26,28-octaene-12,14,14-trione] | 1000 to 5000 | 100 to 500
12 | O=C1Nc2c(ccc3c2CCC3)-c2ccnc(c2)OCCCCCn2cc(cn2)S(=O)(=O)N1 [Example 6, 24-oxa-14λ^6-thia-11,13,17,18,26-pentaazapentacyclo-[23.3.1.1^15,18.0^2,10.0^5,9]triaconta-1(28),2,4,9,15(30),16,25(29),26-octaene-12,14,14-trione] | 1000 to 5000 | 100 to 500
13 | O=C1Nc2c(ccc3c2CCC3)-c2ccnc(c2)OCCCn2ccc(n2)S(=O)(=O)N1 [Example 7, 22-oxa-14λ^6-thia-11,13,18,24,28-pentaazapentacyclo-[21.3.1.1^15,18.0^2,10.0^5,9]octacosa-1(26),2,4,9,15(28),16,23(27),24-octaene-12,14,14-trione] | 500 to 1000 | 500 to 1000
14 | CN1CCOc2cc(ccn2)-c2ccc3c(c2NC(=O)NS(=O)(=O)c2ccn(n2)CC1)CCC3 [Example 8, 21-methyl-24-oxa-14λ^6-thia-11,13,18,21,26,30-hexaazapentacyclo-[23.3.1.1^15,18.0^2,10.0^5,9]triaconta-1(28),2,4,9,15(30),16,25(29),26-octaene-12,14,14-trione] | 500 to 1000 | 500 to 1000
15 | O=C1Nc2c(ccc3c2CCC3)-c2cccc(c2)OCCCCCn2ccc(n2)S(=O)(=O)N1 [Example 9, 24-oxa-14λ^6-thia-11,13,18,30-tetraazapentacyclo-[23.3.1.1^15,18.0^2,10.0^5,9]triaconta-1(28),2,4,9,15(30),16,25(29),26-octaene-12,14,14-trione] | 1000 to 5000 | 500 to 1000
16 | CC(C)c1cc(F)cc2c1NC(=O)NS(=O)(=O)c1ccn(n1)CCCCCOc1cc-2ccn1 [Example 10, 4-fluoro-6-(propan-2-yl)-21-oxa-11λ^6-thia-8,10,15,23,27-pentaazatetracyclo-[20.3.1.1^12,15.0^2,7]heptacosa-1(25),2(7),3,5,12(27),13,22(26),23-octaene-9,11,11-trione] | 1000 to 5000 | 500 to 1000
17 | CC1(C)COc2cc(ccn2)-c2ccc3c(c2NC(=O)NS(=O)(=O)c2ccn1n2)CCC3 [Example 11, 19,19-dimethyl-21-oxa-14λ^6-thia-11,13,18,23,27-pentaaza-pentacyclo[20.3.1.1^15,18.0^2,10.0^5,9]-heptacosa-1(25),2,4,9,15(27),16,22(26),23-octaene-12,14,14-trione] | 100 to 500 | 100 to 500
18 | CC1(C)COCCOc2cc(ccn2)-c2ccc3c(c2NC(=O)NS(=O)(=O)c2ccn1n2)CCC3 [Example 12, 19,19-dimethyl-21,24-dioxa-14λ^6-thia-11,13,18,26,30-pentaazapentacyclo-[23.3.1.1^15,18.0^2,10.0^5,9]triaconta-1(28),2,4,9,15(30),16,25(29),26-octaene-12,14,14-trione] | 500 to 1000 | 100 to 500
19 | CN1CCOc2cc(ccn2)-c2ccc3c(c2NC(=O)NS(=O)(=O)c2ccn(n2)C(C)(C)C1=O)CCC3 [Example 13, 19,19,21-trimethyl-24-oxa-14λ^6-thia-11,13,18,21,26,30-hexaazapentacyclo-[23.3.1.1^15,18.0^2,10.0^5,9]triaconta-1(28),2,4,9,15(30),16,25(29),26-octaene-12,14,14,2o-tetrone] | 500 to 1000 | 100 to 500
